The text below walks through data of US8476197B2, “Aminopropenoates as fungicides” (priority 2009, dated 2013).

Marks after values point to notes of the source that are not given here.

The conditions of one data set: pH 2.3.
Experimental: Measurement of logP values was performed according EEC directive 79/831 Annex V.A8 by HPLC (High Performance Liquid Chromatography) on reversed phase columns with the following methods:
^[a] measurement of LC-MS was done at pH 2.7 with 0.1% formic acid in water and with acetonitrile (contains 0.1% formic acid) as eluent with a linear gradient from 10% acetonitrile to 95% acetonitrile. ^[b] Measurement was done at pH 7.5 with 0.005 molar aqueous KH2PO4 buffer and acetonitrile as eluent. ^[c] Measurement was done at pH 2.3 with 0.1% (w/w) phosphoric acid and acetonitrile as eluent.
The Log P is a log measure of how a compound divides between an organic and an aqueous phase. The low end stands for a more hydrophilic compound, the high end for a more lipophilic compound. `CON(C)C(=O)C(C#N)=C(NC(C)C(C)C)c1cccnc1Cl` (stereo not shown) [Compound 1246]: the “Log P” value is given as 2.68.

As to `CCN(C)C(=O)C(C#N)=C(NC(C)C(C)C)c1cccnc1Cl` (stereo not shown) [Compound 1282], the log partition coefficient (Log P) is 2.91.

As for `CC(C)C(C)NC(=O)C(C#N)=C(NC(C)C(C)C)c1cccnc1Cl` (stereo not shown) [Compound 1283], the “Log P” value is 4.02^[c]; 4.02^[b].

As to `CC(C)C(C)NC(=C(C#N)C(=O)OC1CCC1)c1cccnc1Cl` (stereo not shown) [Compound 1284], the lipophilicity (Log P) is 3.79^[c]; 3.79^[b].

Turning to `CCOC(=O)C(C#N)=C(Nc1cnc2sccc2c1)c1cccnc1Cl` [Compound 1310], the log partition coefficient (Log P) was 2.56.

Staying with this data set, now noted: pH 2.7.
`CCOC(=O)C(C#N)=C(NC(C)c1nccs1)c1cn(C)nc1C` (stereo not shown) [Compound 1212]: the “Log P” value is 2.11^[a].

For `CCOC(=O)C(C#N)=C(NC(C)c1nccs1)c1cn(C)nc1CC` (stereo not shown) [Compound 1213], the “Log P” value was 2.35^[a].

`CCOC(=O)C(C#N)=C(NC(C)c1nccs1)c1cn(C)nc1C(C)C` (stereo not shown) [Compound 1214]: the log partition coefficient (Log P) was 2.62^[a].

`CCOC(=O)C(C#N)=C(NC(C)(C)c1ccc(Cl)cc1)c1cn(C)nc1C(F)F` [Compound 1215]: the “Log P” value was 3.71^[a].

In the case of `CCOC(=O)C(C#N)=C(Nc1ccccc1Cl)c1cn(C)nc1C(F)F` [Compound 1216], the “Log P” value is 3.15^[a].

With `CCOC(=O)C(C#N)=C(Nc1ccc(C#N)cc1)c1cn(C)nc1C(F)F` [Compound 1217], the “Log P” value was 2.64^[a].

Regarding `CCOC(=O)C(C#N)=C(NC(C#N)c1ccccc1Br)c1cn(C)nc1C(F)F` (stereo not shown) [Compound 1218], the “Log P” value was 3.13^[a].

In the case of `CCOC(=O)C(C#N)=C(NC(C#N)c1cccc(Cl)c1Cl)c1cn(C)nc1C(F)F` (stereo not shown) [Compound 1219], the “Log P” value was 3.44^[a].

As to `C#CCC(C#N)NC(=C(C#N)C(=O)OCC)c1cn(C)nc1C(F)F` (stereo not shown) [Compound 1220], the lipophilicity (Log P) is 2.33^[a].

As for `CCOC(=O)C(C#N)=C(NC(C#N)Cc1ccccc1)c1cn(C)nc1C(F)F` (stereo not shown) [Compound 1221], the “Log P” value is 2.98^[a].

In the case of `CCOC(=O)C(C#N)=C(NC(c1ccc(Cl)cc1)C(F)(F)F)c1cn(C)nc1C(F)F` (stereo not shown) [Compound 1222], the “Log P” value was 4.01^[a].

For `CCOC(=O)C(C#N)=C(NC(Cc1ncccc1C)C(F)(F)F)c1cn(C)nc1C(F)F` (stereo not shown) [Compound 1223], the lipophilicity (Log P) is 2.94^[a].

For the molecule `CCOC(=O)C(C#N)=C(NC(c1ccccc1)C(F)(F)F)c1cn(C)nc1C(F)F` (stereo not shown) [Compound 1224], the “Log P” value was 3.55^[a].

Regarding `CCOC(=O)C(C#N)=C(NC(C)c1cccc(OC)c1)c1cn(C)nc1C(F)F` (stereo not shown) [Compound 1225], the “Log P” value was 3.21^[a].

With `CCOC(=O)C(C#N)=C(Nc1ccccc1C(=O)C1CC1)c1cn(C)nc1C(F)F` [Compound 1226], the “Log P” value was 3^[a].

Regarding `CCOC(=O)C(C#N)=C(Nc1ccccc1OC(F)(F)F)c1cn(C)nc1C(F)F` [Compound 1227], the “Log P” value was 3.42^[a].

Consider `CCOC(=O)C(C#N)=C(Nc1ccccc1SCC)c1cn(C)nc1C(F)F` [Compound 1228], for which the “Log P” value was 3.46^[a].

On to `CCOC(=O)C(C#N)=C(NC(C)(C)c1ccc(OC)cc1)c1cn(C)nc1C(F)F` [Compound 1229], for which the “Log P” value was 3.35^[a].

Regarding `CCOC(=O)C(C#N)=C(NC(C#N)c1ccccc1)c1cn(C)nc1C(F)F` (stereo not shown) [Compound 1230], the log partition coefficient (Log P) is 2.94^[a].

With `CCOC(=O)C(C#N)=C(NC(C#N)c1ccc(Cl)cc1Cl)c1cn(C)nc1C(F)F` (stereo not shown) [Compound 1231], the “Log P” value is 3.55^[a].

`CCOC(=O)C(C#N)=C(NC(C#N)c1cnn(-c2ccccc2)c1)c1cn(C)nc1C(F)F` (stereo not shown) [Compound 1232]: the “Log P” value is 3.15^[a].

`CCOC(=O)C(C#N)=C(NC(C)COCc1ccc(C(F)(F)F)cc1)c1cn(C)nc1C(F)F` (stereo not shown) [Compound 1233]: the lipophilicity (Log P) was 3.99^[a].

As for `CCOC(=O)C(C#N)=C(NC(C)CSc1ccc(Cl)cc1)c1cn(C)nc1C(F)F` (stereo not shown) [Compound 1234], the “Log P” value is 3.87^[a].

In the case of `CCOC(=O)C(C#N)=C(NC(C)(C)C#Cc1ccc(C#N)cc1)c1cn(C)nc1C(F)F` [Compound 1238], the “Log P” value was 3.69^[a].

Consider `CCNC(=O)C(C#N)=C(NC(C)C(C)C)c1ccnc(C)c1Cl` (stereo not shown) [Compound 1249], for which the “Log P” value is 3.08^[a].

In the case of `CCOC(=O)C(C#N)=C(NCC(N)=O)c1cn(C)nc1C(F)F` [Compound 1255], the “Log P” value was 2.1^[a].

Take `CCOC(=O)C(C#N)=C(Nc1ccccc1Cl)c1cccnc1Cl` [Compound 1263]: the “Log P” value is 3.35^[a].

As for `CCOC(=O)C(C#N)=C(Nc1ccc(N(C)C)cc1)c1cccnc1Cl` [Compound 1264], the “Log P” value is 3.17^[a].

For the molecule `CCOC(=O)C(C#N)=C(Nc1ccc(C#N)cc1)c1cccnc1Cl` [Compound 1265], the “Log P” value is 2.73^[a].

Turning to `CCOC(=O)C(C#N)=C(Nc1cccc(SC)c1)c1cccnc1Cl` [Compound 1266], the “Log P” value is 3.42^[a].

With `CCOC(=O)C(C#N)=C(NC(C)(C)C#Cc1ccc(C)cc1)c1cccnc1Cl` [Compound 1268], the “Log P” value was 4.41^[a].

With `CCOC(=O)C(C#N)=C(Nc1ccc2ncsc2c1)c1cccnc1Cl` [Compound 1269], the “Log P” value was 2.54^[a].

Turning to `CCOC(=O)C(C#N)=C(NC(C)(C)C=C(Cl)Cl)c1cccnc1Cl` [Compound 1271], the “Log P” value is 3.55^[a].

`CCOC(=O)C(C#N)=C(NC(C)(C)C#Cc1ccc(C#N)cc1)c1cccnc1Cl` [Compound 1272]: the “Log P” value is 3.67^[a].

For the molecule `CCOC(=O)C(C#N)=C(NC(C)(C)C(C)(C)C)c1cccnc1Cl` [Compound 1273], the “Log P” value was 3.8^[a].

As to `CCOC(=O)C(C#N)=C(NC(C)(C)C(=O)OC)c1cccnc1Cl` [Compound 1274], the “Log P” value is 2.66^[a].

On to `CC#CC1(NC(=C(C#N)C(=O)OCC)c2cccnc2Cl)CCCC1` [Compound 1275], for which the “Log P” value was 3.69^[a].

Take `CCOC(=O)C(C#N)=C(NC(C)c1nccs1)c1ccnc(Cl)c1Cl` (stereo not shown) [Compound 1276]: the “Log P” value was 2.96.

In the case of `CCNC(=O)C(C#N)=C(NC(C)C(C)C)c1cn(C)nc1C(F)F` (stereo not shown) [Compound 1278], the “Log P” value is 2.71^[a].

Turning to `CCOC(=O)C(C#N)=C(NC(C)c1nccs1)c1ccnc(C)c1Cl` (stereo not shown) [Compound 1285], the “Log P” value is 2.57^[a].

`CC(C)C(C)NC(=C(C#N)C(=O)N(C)C)c1cn(C)nc1C(F)F` (stereo not shown) [Compound 1286]: the “Log P” value is 2.45^[a].

For `CCNC(=O)C(C#N)=C(NC(C)c1nccs1)c1ccnc(Cl)c1Cl` (stereo not shown) [Compound 1289], the “Log P” value was 2.57^[a].

As for `CCOC(=O)C(C#N)=C(NC(C)c1nccs1)c1ccnc(Br)c1Cl` (stereo not shown) [Compound 1290], the “Log P” value was 3.02^[a].

On to `CC(NC(=C(C#N)C(=O)N(C)C)c1cn(C)nc1C(F)F)c1ccccn1` (stereo not shown) [Compound 1295], for which the “Log P” value was 1.59^[a].

Consider `CC(NC(=C(C#N)C(=O)N(C)C)c1cn(C)nc1C(F)F)c1nccs1` (stereo not shown) [Compound 1296], for which the “Log P” value is 1.81^[a].

Consider `C#CCNC(=O)C(C#N)=C(NC(C)c1nccs1)c1cn(C)nc1C(F)F` (stereo not shown) [Compound 1297], for which the “Log P” value is 2.04^[a].

As to `CC(C)[C@H](C)N/C(=C(/C#N)C(=O)NC1COC1)c1cn(C)nc1C(F)F` [Compound 1298], the “Log P” value was 1.84^[a].

Consider `CC(C)C(C)NC(=C(C#N)C(=O)NCCC#N)c1cn(C)nc1C(F)F` (stereo not shown) [Compound 1299], for which the “Log P” value was 2.44^[a].

In the case of `CCOC(=O)C(C#N)=C(NC(C)c1ccccn1)c1cnn(C)c1C(F)F` (stereo not shown) [Compound 1300], the “Log P” value is 2.41^[a].

On to `CCOC(=O)C(C#N)=C(NC(C)C(C)C)c1cnn(C)c1C(F)F` (stereo not shown) [Compound 1301], for which the log partition coefficient (Log P) was 3.23^[a].

Turning to `CCOC(=O)C(C#N)=C(NC(C)c1nccs1)c1cnn(C)c1C(F)F` (stereo not shown) [Compound 1302], the “Log P” value is 2.46^[a].

As for `CCOC(=O)C(C#N)=C(NC(C)C1CC1)c1cnn(C)c1C(F)F` (stereo not shown) [Compound 1303], the log partition coefficient (Log P) was 2.98^[a].

Consider `CCOC(=O)C(C#N)=C(NC1CCC1)c1cnn(C)c1C(F)F` [Compound 1304], for which the “Log P” value was 2.84^[a].

For the molecule `CCNC(=O)C(C#N)=C(NC(C)c1nccs1)c1ccnc(Br)c1Cl` (stereo not shown) [Compound 1305], the “Log P” value is 2.62^[a].

Take `CCNC(=O)C(C#N)=C(NC(C)c1nccs1)c1ccnc(C)c1Cl` (stereo not shown) [Compound 1306]: the “Log P” value is 2.18^[a].

Turning to `CCNC(=O)C(C#N)=C(NC(C)c1nccs1)c1cnn(C)c1C(F)F` (stereo not shown) [Compound 1308], the “Log P” value was 2.11^[a].

As to `CCNC(=O)C(C#N)=C(NC(C)C1CC1)c1cnn(C)c1C(F)F` (stereo not shown) [Compound 1309], the “Log P” value was 2.64^[a].

As to `CCOC(=O)C(C#N)=C(NC(C)C(C)C)c1ccnc(Cl)c1F` (stereo not shown) [Compound 1311], the “Log P” value was 3.81^[a].

As for `CCOC(=O)C(C#N)=C(NC(C)c1ccccn1)c1ccnc(Cl)c1F` (stereo not shown) [Compound 1312], the “Log P” value was 3^[a].

`CCOC(=O)C(C#N)=C(NC(C)c1nccs1)c1ccnc(Cl)c1F` (stereo not shown) [Compound 1313]: the “Log P” value is 2.96^[a].

On to `CCOC(=O)C(C#N)=C(NC(C)C(C)C)c1ccnc(Br)c1F` (stereo not shown) [Compound 1315], for which the “Log P” value is 3.87^[a].

Take `CCNC(=O)C(C#N)=C(NC(C)C(C)C)c1ccnc(Cl)c1F` (stereo not shown) [Compound 1316]: the log partition coefficient (Log P) is 3.44^[a].

As to `CCOC(=O)C(C#N)=C(NC(C)C(C)C)c1ccnc(C)c1F` (stereo not shown) [Compound 1317], the lipophilicity (Log P) is 3.31^[a].

For the molecule `CCOC(=O)C(C#N)=C(NC(C)C1CC1)c1ccnc(Cl)c1F` (stereo not shown) [Compound 1318], the “Log P” value is 3.5^[a].

With `CCOC(=O)C(C#N)=C(NC(C)c1nccs1)c1ccnc(C)c1F` (stereo not shown) [Compound 1319], the “Log P” value was 2.48^[a].

Consider `CCOC(=O)C(C#N)=C(NC(C)c1ccccn1)c1ccnc(C)c1F` (stereo not shown) [Compound 1320], for which the “Log P” value was 2.5^[a].

In the case of `CCOC(=O)C(C#N)=C(NC1CCC1)c1ccnc(Cl)c1F` [Compound 1321], the “Log P” value was 3.39^[a].

The data set is the same for the next values; noted with them: pH 7.5.
Consider `CON(C)C(=O)C(C#N)=C(NC(C)C(C)C)c1cccnc1Cl` (stereo not shown) [Compound 1246], for which the “Log P” value amounted to 2.67.

Turning to `CCOC(=O)C(C#N)=C(NC(C)c1nccs1)c1ccnc(Cl)c1Cl` (stereo not shown) [Compound 1276], the “Log P” value was 2.91.

Turning to `CC(NC(=C(C#N)C(=O)OC1COC1)c1cccnc1Cl)C1CC1` (stereo not shown) [Compound 1281], the lipophilicity (Log P) was 2.31.

For the molecule `CCN(C)C(=O)C(C#N)=C(NC(C)C(C)C)c1cccnc1Cl` (stereo not shown) [Compound 1282], the “Log P” value was 2.9.

As for `CC(C)C(C)NC(=O)C(C#N)=C(NC(C)C(C)C)c1cccnc1Cl` (stereo not shown) [Compound 1283], the “Log P” value was 4.02^[c]; 4.02^[b].

As for `CC(C)C(C)NC(=C(C#N)C(=O)OC1CCC1)c1cccnc1Cl` (stereo not shown) [Compound 1284], the “Log P” value was 3.79^[c]; 3.79^[b].

Regarding `CCOC(=O)C(C#N)=C(Nc1cnc2sccc2c1)c1cccnc1Cl` [Compound 1310], the “Log P” value is recorded as 2.49.
